According to patent US20240224995A1, “USE OF CLETHODIM FOR INSECT CONTROL” (SYNGENTA CROP PROTECTION AG, priority 2021, published 2024):

Legend:
Assay type in all cases: in vivo
[1] = system: Bemisia tabaci (Silverleaf whitefly); experiment: Curative control of Bemisia tabaci second nymph stage (N2) on French beans, spray application
From the text: (§1) Examples 1 to 3 describe biological tests relating to the curative and preventative control of a series of insects with the spray application of dilutions of a formulation containing clethodim as sole active ingredient (ai) (EC240 formulation (SELECT®)) in combination with OCHIMAR adjuvant (Syngenta—alkyl ester of phosphoric acid (752 g/L EC) formulation) to bean or cabbage plants infested with Bemisia tabaci, Frankliniella occidentalis or Myzus persicae (four replicates). The testing protocols and insect control effects are shown below.
Curative control of Bemisia tabaci (Silverleaf whitefly), second nymph stage (N2), treated on French beans (BBCH12):
All treatments (including check) were applied with 250 ml adjuvant (OCHIMA®) per hectare.

[2] = system: Myzus persicae (Green peach aphids); experiment: Curative control of Myzus persicae mixed aged population on Chinese cabbage, spray application; conditions: 120 and 60 g ai/ha
From the text: as §1
Curative control of Myzus persicae (Green peach aphids), mixed aged population, on Chinese cabbage (BBCH19).
All adjuvant containing treatments were applied with 250 mL adjuvant (OCHIMA®) per hectare.

[3] = system: Frankliniella occidentalis (Western flower thrips); experiment: Frankliniella occidentalis mixed aged population infested on French beans three hours after treatment, plant damage evaluation; conditions: 60 g ai/ha; plant damage by feeding on leaf tissue
From the text: as §1
Frankliniella occidentalis (Western flower thrips), mixed aged population, infested on French beans (BBCH12) three hours after treatment.
All treatments (including check) were applied with 250 mL adjuvant (OCHIMA®) per hectare. The above table relates to an evaluation of plant damage caused by Western flower thrips feeding on leaf tissue.

For `CCSC(C)CC1CC(=O)C(/C(CC)=N\OC/C=C/Cl)=C(O)C1` (racemic) [clethodim, (5RS)-2-[(1EZ)-N-{[(2E)-3-chloroallyl]oxy}propanimidoyl]-5-[(2RS)-2-(ethylthio)propyl]-3-hydroxycyclohex-2-en-1-one], the “efficacy against whiteflies compared to thrips or aphids” value ([1]; data in Tables 1 to 3) was “surprising selective efficacy”, the “control effect against whiteflies against the check treatment” value ([1]; two ai application rates (120 and 60 g ai/ha)) was “significant control effect” and the “control effect against aphids against the check treatment” value [2] was “at best minor”. The “control effect against Western flower thrips against the check treatment” value [3] was “at best minor”.
